{
  "source": "patent US10709704B2",
  "about": "“Treating neural disease with tyrosine kinase inhibitors” (GEORGETOWN UNIVERSITY, priority 2012, dated 2020)",
  "key": {"caspase-3 activity": {"tested_on": "caspase-3 activity", "test": "Caspase-3 activity, lentiviral α-Synuclein mice", "assay_type": "in vivo, mouse", "description": "To measure caspase-3 activity in the animal models, we used EnzChek® caspase-3 assay kit #1 (Invitrogen) on cortical extracts and Z-DEVD-AMC substrate and the […] was read according to manufacturer's protocol."}, "[1]": {"tested_on": "molecular markers of autophagy", "test": "Western blot of autophagy markers, lentiviral α-Synuclein mice", "assay_type": "in vivo, mouse", "settings": "Nilotinib 10 mg/kg IP daily 3 weeks", "description": "(§1) Rabbit polyclonal (1:1000) tubulin (Thermo Scientific) was used."}, "[2]": {"tested_on": "molecular markers of autophagy", "test": "Western blot of autophagy markers, A53T mice", "assay_type": "in vivo, mouse", "settings": "daily IP Nilotinib 3 weeks", "description": "as §1"}, "[3]": {"tested_on": "parkin and molecular markers of autophagy", "test": "Parkin and autophagy markers (WB, ELISA), lentiviral Aβ1-42 wild type mice", "assay_type": "in vivo, mouse"}, "Tg-APP mice [4]": {"tested_on": "Tg-APP mice", "test": "Morris water maze, Tg-APP mice", "assay_type": "in vivo, mouse", "method": "All animals were pre-trained (trials) to swim for 90 seconds in a water maze containing a platform submerged in water (invisible) for 4 consecutive days once a day. The pretraining trials “teach” the swimming animals that to “escape”, they must find the hidden platform, and stay on it. The water maze “test” was performed on day 5, (40), when the platform was removed and mice have to swim and find it, thus assessing acquisition and retention. All parameters, including distance travelled to reach platform, speed to get to the platform, latency or time spent on platform, and platform entry were digitally recorded on a computer and analyzed by a blind investigator.\n(§2) These experiments were repeated in 1 year old Tg-APP mice and age-matched control (C57BL/6)."}, "Tg-APP mice [5]": {"tested_on": "Tg-APP mice", "test": "Novel object recognition, Tg-APP mice", "assay_type": "in vivo, mouse", "settings": "Tg-APP+Nilotinib", "method": "Mice were placed individually in a 22×32×30 cm testing chamber for a 5 min habituation interval and returned to their home cages. Thirty minutes later mice were placed in the testing chamber for 10 min with two identical objects (acquisition session), then returned to their home cages and […] placed back in the testing chamber in the presence with one of the original objects and one novel object of the same size but of a different color and shape (recognition session). Sessions were video recorded. Time spent exploring the objects were scored by blind observer. The recognition index was calculated as (time exploring one of the objects/time exploring both objects)×100 for acquisition session, and (time exploring new object/time exploring both familiar and novel objects)×100 for the recognition session. Statistical calculations to estimate differences between sessions were performed with a pairwise t-test.\nas §2"}, "[6]": {"tested_on": "human Tau, Aβ1-42, α-synuclein", "test": "M17 cells transfected with Tau cDNA: Tau, Aβ1-42, α-synuclein", "assay_type": "cell-based", "method": "Cell culture experiments are referenced below and explained in Burns et al. (Human Molecular Genetics. 2009) and Rebeck et al. (J. Biol. Chem. 2010, 285:7440-7446). Additional details are provided in the brief description of the figures.\nIn other experiments, M17 cells transfected with Tau cDNA were treated with Nilobinib and Tubacin (an HDAC6 inhibitor)."}, "[7]": {"tested_on": "autophagic vacuoles and lysosomes", "test": "Subcellular fractionation (AV-10, AV-20, lysosome) and ELISA, Tg-APP mice", "assay_type": "in vivo, mouse", "method": "Histograms show Aβ1-42 in subcellular fractions, including autophagic vacuole-10 (AV-10; phagophores+autophagosomes), AV-20 (autophagosomes) and lysosomes. […] Brain tissues were fractionated to isolate AVs and human specific ELISA was performed to determine protein contents. N=5 animals per treatment.\n(§3) 0.5 g of Frozen human or animal brains were homogenized at low speed (Cole-Palmer homogenizer, LabGen 7, 115 Vac) in 1×STEN buffer and centrifuged at 1,000 g for 10 minutes to isolate the supernatant from the pellet. The pellet was re-suspended in 1×STEN buffer and centrifuged once to increase the recovery of lysosomes. The pooled supernatants were then centrifuged at 100,000 rpm for 1 hour at 4° C. to extract the pellet containing autophagic vacuoles (AVs) and lysosomes. The pellet was then re-suspended in 10 ml (0.33 g/ml) 50% Metrizamide and 10 ml in cellulose nitrate tubes. A discontinuous Metrizamide gradient was constructed in layers from bottom to top as follows: 6 ml of pellet suspension, 10 ml of 26%; 5 ml of 24%; 5 ml of 20%; and 5 ml of 10% Metrizamide (Marzella et al., 1982). After centrifugation at 10,000 rpm for 1 hour at 4° C., the fraction floating on the 10% layer (Lysosome) and the fractions banding at the 24%/20% (AV 20) and the 20%/10% (AV10) Metrizamide inter-phases were collected by a syringe and examined.\nas §3, with “Animal” for “0.5 g of Frozen human or animal”, “100.000” for “100,000”, “[…]” for “4°”, “Metrizamide.” for “Metrizamide (Marzella et al., 1982).”, “100,000” for “10,000”, “40 C,” for “4° C.,”"}, "[8]": {"settings": "wild type lentiviral Aβ1-42 mice, Nilotinib vs DMSO"}, "[9]": {"settings": "IP 10 mg/kg Nilotinib or 5 mg/Kg Bosutinib daily 3 weeks"}},
  "data": [
    {"smiles": "Cc1cn(-c2cc(NC(=O)c3ccc(C)c(Nc4nccc(-c5cccnc5)n4)c3)cc(C(F)(F)F)c2)cn1", "note": "[Nilotinib]", "values": [
      {"measurement": "caspase-3 activity, Nilotinib vs DMSO", "setting": "caspase-3 activity; LacZ injected mice, daily IP 10 mg/kg", "result": "did not result in any difference"},
      {"measurement": "caspase-3 activity", "setting": "caspase-3 activity; lentiviral α-Synuclein mice, daily IP 10 mg/kg Nilotinib 3 weeks", "result": "140 % of LacZ levels"},
      {"measurement": "decrease in LC3-II compared to LC3-I", "setting": "[1]", "result": 39, "unit": "%"},
      {"measurement": "decrease in LC3-II compared to MAP-2", "setting": "[1]", "result": 41, "unit": "%"},
      {"measurement": "decrease in P62", "setting": "[1]", "result": 69, "unit": "%"},
      {"measurement": "increase in Atg-5 compared to actin", "setting": "[1]", "result": 43, "unit": "%"},
      {"measurement": "increase in Atg-12 compared to actin", "setting": "[1]", "result": 58, "unit": "%"},
      {"measurement": "increase in beclin-1 compared to actin", "setting": "[1]", "result": 62, "unit": "%"},
      {"measurement": "LC3-II level", "setting": "[2]", "result": "completely disappeared"},
      {"measurement": "increase in Atg-5 compared to DMSO", "setting": "[2]", "result": 29, "unit": "%"},
      {"measurement": "increase in beclin-1 compared to DMSO", "setting": "[2]", "result": 69, "unit": "%"},
      {"measurement": "LC3-II", "setting": "[3]; [8]", "result": "disappearance"},
      {"measurement": "decrease in LC3-B", "setting": "[3]; [8]", "result": 38, "unit": "%"},
      {"measurement": "parkin level (ELISA)", "setting": "[3]; wild type mice and lentiviral Aβ1-42 ± Nilotinib", "result": "increases parkin level"},
      {"measurement": "time spent in SE", "setting": "Tg-APP mice [4]; 1 year old Tg-APP mice, 10 mg/kg daily for 3 weeks", "result": "reversed time spent in SE back to control level"},
      {"measurement": "distance traveled above control levels", "setting": "Tg-APP mice [4]; Nilotinib treated Tg-APP mice", "result": 30, "unit": "%"},
      {"measurement": "entries into SE (platform entry) higher than control", "setting": "Tg-APP mice [4]; Tg-APP+Nilotinib", "result": 30, "unit": "%"},
      {"measurement": "better performance at finding new objects than DMSO mice", "setting": "Tg-APP mice [5]", "result": 31, "unit": "%"},
      {"measurement": "human Aβ1-42", "setting": "[6]", "result": "decrease"},
      {"measurement": "human Tau", "setting": "[6]", "result": "decrease"},
      {"measurement": "α-synuclein", "setting": "[6]", "result": "decrease"},
      {"measurement": "autophagic clearance of Aβ1-40 (deposition in AV-20 and lysosome)", "setting": "[7]; [9]", "result": "enhances autophagic clearance"},
      {"measurement": "autophagic clearance of Aβ1-42 (deposition in AV-20 and lysosome)", "setting": "[7]; [9]", "result": "enhances autophagic clearance"},
      {"measurement": "autophagic clearance of p-Tau ser 396 (deposition in AV-20 and lysosome)", "setting": "[7]; [9]", "result": "enhances autophagic clearance"},
      {"measurement": "autophagic clearance of parkin (deposition in AV-20 and lysosome)", "setting": "[7]; IP 10 mg/kg Nilotinib or 5 mg/kg Bosutinib daily 3 weeks", "result": "enhances autophagic clearance"}
    ]}
  ]
}
